20 molecules from patent EP4745134A1 (Jiangsu Yahong Meditech Co., Ltd., priority 2023, dated 2025) can be followed below.

In one experiment the target is PRMT5-MTA (Homo sapiens, UniProt O14744). The experiment is described as follows: Enzymatic inhibitory activity against PRMT5-MTA (AlphaScreen). It counts as biochemical. The conditions noted are these: read-out: IC50. The essentials: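 PRMT5/[…] (1 nM) was preincubated for 30 min at room temperature with 1 µM […] and 2.5 µM SAM, then exposed to compound (10-point, 3-fold from 1000 nM) for 15 min at 23 °C. Histone H4 substrate (5 nM) was added and reacted for 45 min at 23 °C. Symmetric dimethyl-R3 H4 was detected by AlphaScreen and IC50 calculated.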
Sequence of PRMT5-MTA (O14744 whole entry): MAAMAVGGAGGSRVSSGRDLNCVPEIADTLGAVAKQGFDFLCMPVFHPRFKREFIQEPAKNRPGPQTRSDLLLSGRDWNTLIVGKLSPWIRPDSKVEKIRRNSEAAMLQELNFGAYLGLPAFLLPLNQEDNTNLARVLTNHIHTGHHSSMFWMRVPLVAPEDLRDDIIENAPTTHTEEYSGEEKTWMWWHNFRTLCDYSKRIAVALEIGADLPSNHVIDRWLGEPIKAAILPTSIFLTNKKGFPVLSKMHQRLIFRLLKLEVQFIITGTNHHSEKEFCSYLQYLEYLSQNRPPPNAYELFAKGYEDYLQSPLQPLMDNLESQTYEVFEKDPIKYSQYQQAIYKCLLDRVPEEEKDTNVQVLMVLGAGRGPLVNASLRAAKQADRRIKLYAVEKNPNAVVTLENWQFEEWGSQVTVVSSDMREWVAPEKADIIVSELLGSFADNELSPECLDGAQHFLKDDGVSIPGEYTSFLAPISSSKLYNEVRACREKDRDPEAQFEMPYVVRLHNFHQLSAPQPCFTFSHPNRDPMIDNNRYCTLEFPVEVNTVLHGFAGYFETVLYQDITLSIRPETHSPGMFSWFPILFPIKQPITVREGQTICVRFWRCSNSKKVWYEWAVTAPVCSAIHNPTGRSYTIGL
Sequence of PRMT5-MTA (Q9BQA1 whole entry partner): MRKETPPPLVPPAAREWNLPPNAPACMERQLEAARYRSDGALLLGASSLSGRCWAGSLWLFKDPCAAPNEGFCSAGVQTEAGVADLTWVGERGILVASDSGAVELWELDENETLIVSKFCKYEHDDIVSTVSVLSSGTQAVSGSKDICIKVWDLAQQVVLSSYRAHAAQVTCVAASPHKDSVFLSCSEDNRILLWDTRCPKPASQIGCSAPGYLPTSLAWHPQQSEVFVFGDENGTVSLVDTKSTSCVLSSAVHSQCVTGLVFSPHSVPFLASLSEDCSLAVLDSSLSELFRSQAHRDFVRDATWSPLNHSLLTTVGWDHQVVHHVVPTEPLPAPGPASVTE
In general terms: Alpha assays give light when donor and acceptor beads are brought close together.

A further experiment concerns HCT116 MTAP KO cells. The experiment is described as follows: Inhibitory activity against cell proliferation (CellTiter Glo, 6 days), HCT116 MTAP KO. It counts as cell-based. The note with it: for IC50: Homo sapiens, HCT-116, 144 h, HCT116 MTAP KO cells, 6 days, CellTiter Glo, read-out: HCT116 MTAP KO IC50; for Selectivity HCT 116-WT/ HCT116 MTAP KO: ratio of IC50 HCT116-WT / HCT116 MTAP KO. Summed up: (§1)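 Viability is measured by CellTiter Glo luminescence on day 7, following a 6-day treatment with compounds serially diluted 4-fold over 8 points from 10000 nM. Both lines are plated at 250 cells per well and cultured overnight beforehand.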

For the next experiment, the system named is HCT116-WT cells. The experiment is described as follows: Inhibitory activity against cell proliferation (CellTiter Glo, 6 days), HCT116-WT. In kind it is cell-based. The conditions noted are these: 144 h, HCT116-WT cells, 6 days, CellTiter Glo; read-out: HCT116-WT IC50. Summed up:
as §1
(Cellular ATP, detected with luciferase, serves as a proxy for viable cell number.)

As a reminder, the IC50 is the concentration at which inhibition is half-maximal.

Take `[2H]C([2H])([2H])c1cc2cc(C(=O)N(Cc3ccc(C(F)(F)F)cn3)N(c3ncccn3)C3CC3)ccc2nc1N` [Example 314, 2-amino-N'-cyclopropyl-3-(methyl-D3)-N'-(pyrimidin-2-yl)-N-((5-(trifluoromethyl)pyridin-2-yl)methyl)quinoline-6-carbo hydrazide]: the results for the IC50 on PRMT5-MTA, with HCT116 MTAP KO cells and in the experiment with HCT116-WT cells were 4.7 nM, 12 nM and 283 nM, respectively. For the same molecule, the “Selectivity HCT 116-WT/ HCT116 MTAP KO” value in the experiment on HCT116 MTAP KO cells was 23.58.
The matching figures for `COC1CN(C(=O)c2cc3c(cc2Cl)nc(N)c2cnn(C)c23)N(c2cccc(F)n2)C1` (centres unmarked) [Example 448, (4-amino-7-chloro-1-methyl-1H-pyrazolo [4,3-c]quinolin-8-yl)(2-(6-fluoropyridin-2-yl)-4-methoxypyrazolidin-1-yl)methanone]: 5.1 nM, 27 nM, 586 nM and 21.70.
In the case of `Cc1cc2cc(C(=O)N(Cc3ccc(-c4nncs4)cn3)N(C)c3ncccn3)ccc2nc1N` [Example 229, N-((5-(1,3,4-thiadiazol-2-yl)pyridin-2-yl)methyl)-2-amino-N',3-dimethyl-N'-(pyrimidin-2-yl)quinoline-6-carbohydrazide], the IC50 turned out to be 3.7 nM on PRMT5-MTA, 14 nM in the experiment on HCT116 MTAP KO cells and 670 nM in the experiment on HCT116-WT cells. In addition, the “Selectivity HCT 116-WT/ HCT116 MTAP KO” value in the experiment with HCT116 MTAP KO cells is listed as 47.86.
In the same order, the values of `Cc1cc2cc(C(=O)N(Cc3ccc(C(F)(F)F)cn3)N(C)c3cnccn3)ccc2nc1N` [Example 34, 2-amino-N',3-dimethyl-N'-(pyrazin-2-yl) -N-((5-(trifluoromethyl)pyridin-2-yl)methyl)quinoline-6-carbohydrazide] are 1.5 nM, 58 nM, 1270 nM and 21.90.
Take `Cc1cc2nc(N)c3cnn(C)c3c2cc1C(=O)N1CC(C)CN1c1cc(F)ccc1F` (centres unmarked) [Example 335, (4-amino-1,7-dimethyl-1H-pyrazolo[4,3-c]quinolin-8-yl)(2-(2,5-difluorophenyl)-4-methylpyrazolidin-1-yl)methanone]: the IC50 at PRMT5-MTA stood at 3.3 nM; in the experiment with HCT116 MTAP KO cells it was 15 nM; in the experiment on HCT116-WT cells, 644 nM. Besides, in the experiment with HCT116 MTAP KO cells, the “Selectivity HCT 116-WT/ HCT116 MTAP KO” value is on record as 42.93.
With `Cc1cc2cc(C(=O)N(Cc3ccc(C4=CCOC4)cn3)N(C)c3ncccn3)ccc2nc1N` [Example 186, 2-amino-N-((5-(2,5-dihydrofuran-3-yl)pyridin-2-yl)methyl)-N',3-dimethyl-N'-(pyrimidin-2-yl)quinoline-6-carbohydrazide], the IC50 at PRMT5-MTA was determined as 5.6 nM; in the experiment on HCT116 MTAP KO cells, 122 nM; in the experiment with HCT116-WT cells it was 2830 nM. For the same molecule, the “Selectivity HCT 116-WT/ HCT116 MTAP KO” value with HCT116 MTAP KO cells amounted to 23.20.
For `Cc1cc2cc(C(=O)N(Cc3ccc(-c4ccoc4)cn3)N(C)c3ncccn3)ccc2nc1N` [Example 156, 2-amino-N-((5-(furan-3-yl)pyridin-2-yl)methyl)-N',3-dimethyl-N'-(pyrimidin-2-yl)quinoline-6-carbohydrazide], the IC50 at PRMT5-MTA was found to be 1.8 nM; in the experiment with HCT116 MTAP KO cells it was 76 nM; in the experiment on HCT116-WT cells, 1540 nM. Moreover, in the experiment on HCT116 MTAP KO cells, the “Selectivity HCT 116-WT/ HCT116 MTAP KO” value is 20.26.
In the same order, the values of `Cc1ncc(-c2cnc(N3CC(C)CN3C(=O)c3cc4c(cc3C)nc(N)c3cnn(C)c34)c(F)c2)cn1` (centres unmarked) [Example 477, (4-amino-1,7-dimethyl-1H-pyrazolo[4,3-c]quinolin-8-yl)(2-(3-fluoro-5-(2-methylpyrimidin-5-yl)pyridin-2-yl)-4-methylpyrazolidin-1-yl)methanone] are 4.7 nM, 28 nM, 1460 nM and 52.00.
Take `Cc1cc2cc(C(=O)N(Cc3ccc(-c4cnn(C5CC5)c4)cn3)N(C)c3ncccn3)ccc2nc1N` [Example 192, 2-amino-N-((5-(1-cyclopropyl-1H-pyrazol-4-yl)pyridin-2-yl)methyl)-N',3-dimethyl -N'-(pyrimidin-2-yl)quinoline-6-carbohydrazide]: the IC50 on PRMT5-MTA is 2.1 nM; with HCT116 MTAP KO cells, 44 nM; with HCT116-WT cells, 1220 nM. Also, the “Selectivity HCT 116-WT/ HCT116 MTAP KO” value in the experiment with HCT116 MTAP KO cells stood at 27.66.
The matching figures for `Cc1cc2cc(C(=O)N(Cc3ccc(C4CC4)cn3)N(C)c3ncccn3)ccc2nc1N` [Example 153, 2-amino-N-((5-cyclopropylpyridin-2-yl)methyl)-N',3-dimethyl-N'-(pyrimidin-2-yl)quinoline-6-carbohydrazide]: 1.6 nM, 20 nM, 1060 nM and 52.80.
As for `Cc1cc2cc(C(=O)N(Cc3ccc(C4(F)CCC4)cn3)N(C)c3ncccn3)ccc2nc1N` [Example 287, 2-amino-N-((5-(1-fluorocyclobutyl)pyridin-2-yl)methyl)-N',3-dimethyl-N'-(pyrimidin-2-yl)quinoline-6-carbohydrazide], the IC50 on PRMT5-MTA was determined as 2.2 nM; in the experiment on HCT116 MTAP KO cells, 113 nM; in the experiment on HCT116-WT cells, 2560 nM. In addition, the “Selectivity HCT 116-WT/ HCT116 MTAP KO” value with HCT116 MTAP KO cells came out at 22.69.
On to `Cc1cc2cc(C(=O)N(Cc3ccc(-c4cccnc4)cn3)N(C)c3ncccc3F)ccc2nc1N` [Example 163, N-([3,3'-bipyridine]-6-ylmethyl)-2-amino -N'-(3-fluoropyridin-2-yl)-N',3-dimethylq uinoline-6-carbohydrazide], for which the values for the IC50 at PRMT5-MTA, in the experiment with HCT116 MTAP KO cells and with HCT116-WT cells were 1.4 nM, 15 nM and 465 nM, respectively. Further, in the experiment with HCT116 MTAP KO cells, the “Selectivity HCT 116-WT/ HCT116 MTAP KO” value was determined as 31.00.
Regarding `Cc1cc2nc(N)c3cnn(C)c3c2cc1C(=O)N1CC(C)CN1c1ncc(-c2cnn(C(F)(F)F)c2)cc1F` (centres unmarked) [Example 472, (4-amino-1,7-dimethyl-1H-pyrazolo[4,3-c]quinolin-8-y1)(2-(3-fluoro-5-(1-(trifluor omethyl)-1H-pyrazol-4-yl)pyridin-2-yl)-4-methylpyrazolidin-1-yl)methanone], the IC50 at PRMT5-MTA was 4.6 nM; in the experiment on HCT116 MTAP KO cells, 30 nM; in the experiment on HCT116-WT cells it was 971 nM. Further, the “Selectivity HCT 116-WT/ HCT116 MTAP KO” value in the experiment with HCT116 MTAP KO cells was 32.37.
For `Cc1cc2cc(C(=O)N(Cc3ccc(-c4cnn(C(C)C)c4)cn3)N(C)c3ncccn3)ccc2nc1N` [Example 203, 2-amino-N-((5-(1-isopropyl-1H-pyrazol-4-yl)pyridin-2-yl)methyl)-N',3-dimethyl-N'-(pyrimidin-2-yl)quinoline-6-carbohydrazide], the IC50 at PRMT5-MTA came to 1.8 nM; in the experiment on HCT116 MTAP KO cells, 40 nM; in the experiment with HCT116-WT cells, 1030 nM. The “Selectivity HCT 116-WT/ HCT116 MTAP KO” value in the experiment with HCT116 MTAP KO cells came out at 25.65.
The matching figures for `Cc1cc2cc(C(=O)N(Cc3ccc(-c4ccccn4)cn3)N(C)c3ncccn3)ccc2nc1N` [Example 141, N-([2,3'-bipyridine]-6'-ylmethyl)-2-amino -N',3-dimethyl-N'-(pyrimidin-2-yl)quino line-6-carbohydrazide]: 2.3 nM, 76 nM, 2030 nM and 26.76.
The matching figures for `Cc1cc2cc(C(=O)N(Cc3ccc(C(F)(F)F)cn3)N(C)c3ncc(OC(F)F)cn3)ccc2nc1N` [Example 57, 2-amino-N'-(5-(difluoromethoxy)pyrimidin-2-yl)-N',3-dimethyl-N-((5-(trifluoromethyl)pyridin-2-yl)methyl)quinoline-6-carbohydrazide]: 1.9 nM, 490 nM, 5640 nM and 11.51.
In the case of `Cc1cc2cc(C(=O)N(Cc3ccc(-c4scnc4C)cn3)N(C)c3ncccn3)ccc2nc1N` [Example 235, 2-amino-N',3-dimethyl-N-((5-(4-methylthiazol-5-yl)pyridin-2-yl)methyl)-N'-(pyrimidin-2-yl)quinoline-6-carbohydrazide], the values for the IC50 on PRMT5-MTA, in the experiment with HCT116 MTAP KO cells and in the experiment with HCT116-WT cells were 3.8 nM, 5.7 nM and 183 nM, respectively. In addition, the “Selectivity HCT 116-WT/ HCT116 MTAP KO” value with HCT116 MTAP KO cells came to 32.11.
The matching figures for `Cc1cc2nc(N)c3cnn(C)c3c2cc1C(=O)N1CC(C)CN1c1ncc(-c2cnc3c(cnn3C)c2)cc1F` (centres unmarked) [Example 479, (4-amino-1,7-dimethyl-1H-pyrazolo[4,3-c]quinolin-8-yl)(2-(3-fluoro-5-(1-methyl-1H-pyrazolo[3,4-b]pyridin-5-yl)pyridin-2-yl)-4-methylpyrazolidin-1-yl)methanone]: 5.3 nM, 32 nM, 1270 nM and 39.66.
In the same order, the values of `Cc1cc2cc(C(=O)N(Cc3ccc(C(F)F)cn3)N(C)c3ncccn3)ccc2nc1N` [Example 273, 2-amino-N-((5-(difluoromethyl)pyridin-2-yl)methyl)-N',3-dimethyl-N'-(pyrimidin-2-yl)quinoline-6-carbohydrazide] are 2.8 nM, 78 nM, 2280 nM and 29.27.
In the same order, the values of `Cc1cc2cc(C(=O)N(Cc3ccc(-c4ccncc4)cn3)N(C)c3ncccn3)ccc2nc1N` [Example 173, N-([3,4'-bipyridine]-6-ylmethyl)-2-amino -N',3-dimethyl-N'-(pyrimidin-2-yl)quinoline-6-carbohydrazide] are 1.9 nM, 21 nM, 633 nM and 30.14.
